# Results from ChEMBL document CHEMBL4665833, “Systematic Study of the Glutathione Reactivity of N-Phenylacrylamides: 2. Effects of Acrylamide Substitution” (J Med Chem, 2020).
# Experiments:
# Format in all cases: ADME
# [1] = GSH reactivity in pH 7.4 phosphate buffer assessed as pseudo first-order rate constant at 1 uM in presence of glutathione measured up to 120 mins by LC/MS analysis; details: pH 7.4, 2 h
# [2] = GSH reactivity in pH 7.4 phosphate buffer assessed as half life at 1 uM in presence of glutathione measured up to 120 mins by LC/MS analysis; details: phosphate buffer with glutathione
# [3] = GSH reactivity in pH 7.4 phosphate buffer assessed as change in gibbs free energy at 1 uM in presence of glutathione measured up to 120 mins by LC/MS analysis; details: pH 7.4, 2 h
smiles,measurement,setting,value
CN(C/C=C/C(=O)Nc1ccccc1)CCF,K,[1],2.13 10^-3/min
same,half-life at 1 µM,[2],326 min
O=C(/C=C/CN1CCCC1)Nc1ccccc1,deltaG,[3],24.1 kcal/mol
O=C(/C=C/CN1CC(F)C1)Nc1ccccc1,K,[1],< 1.35 10^-3/min
O=C(/C=C/C(F)F)Nc1ccccc1,deltaG,[3],23.3 kcal/mol
O=C(/C=C/CN1CC(F)(F)C(F)(F)C1)Nc1ccccc1,deltaG,[3],> 24.7 kcal/mol
CCN(CC)C/C=C/C(=O)Nc1ccccc1,deltaG,[3],24.1 kcal/mol
CN(C)CC/C=C/C(=O)Nc1ccccc1,deltaG,[3],24.7 kcal/mol
C=C(Cl)C(=O)Nc1ccccc1,K,[1],231 10^-3/min
same,deltaG,[3],21.6 kcal/mol
same,half-life at 1 µM,[2],3 min
C=CC(=O)Nc1ccccc1,deltaG,[3],24.1 kcal/mol
CN(C)C/C=C/C(=O)Nc1ccccc1,deltaG,[3],23.9 kcal/mol
C=C(CN(C)C)C(=O)Nc1ccccc1,deltaG,[3],< 21.4 kcal/mol
C=C(C(=O)Nc1ccccc1)C(F)(F)F,deltaG,[3],22.6 kcal/mol
